Test results: patent US9175045B2, “Peptidomimetic macrocycles” (Aileron Therapeutics, Inc., priority 2008, dated 2015)
Numbered stars: 1 amine (or outer) side, 2 acyl side, 3 side chain; on linkers, the order of the positions; unused ones are H or OH. Bridge positions count the residues as written; N and C are the ends. Square brackets hold non-standard residues; d marks the D form. Peptide text beside a SMILES is read from it. * marks the point of attachment. ξ: configuration not given here. ξαMeNle(6-ylidene) = CC(CCCC=[*:3])(N[*:1])C(=O)[*:2]; Nle = CCCC[C@H](N)C(=O)O; Aib = CC(C)(N)C(=O)O; Propionyl = CCC(=O)*

Legend:
Jurkat cell line = type: cell-based; conditions: for EC50: 24 h
Procedure: Jurkat cell line (Clone E6-1, ATCC catalog #TIB-152) is grown in specific serum-supplemented media (RPMI-1640, Invitrogen catalog #22400) as recommended by ATCC. A day prior to the initiation of the study, cells are split at optimal cell density (2×10^5-5×10^5 cells/ml) to assure actively dividing cells. The next day, cells are washed twice in serum-free Opti-MEM media (Invitrogen, Catalog #51985) and cells are then plated at optimal cell density (10,000 cells/well) in 50 μl Opti-MEM media or Opti-MEM supplemented with 2% or 10% human serum (Bioreclamation, catalog #HMSRM) in 96-well white tissue culture plate (Nunc, catalog #136102).
For serum free experiment, crosslinked polypeptides are diluted from 2 mM stocks (100% DMSO) in sterile water to prepare 400 μM working solutions. The crosslinked polypeptides and controls are diluted 10-fold first and then serially two-fold diluted in Opti-MEM in dosing plates to provide concentrations of between 1.2 and 40 μM. 50 μl of each dilution is then added to the appropriate wells of the test plate to achieve final concentrations of the polypeptides equal to between 0.6 to 20 μM. For studies using Opti-MEM supplemented with human serum (Bioreclamation, catalog #HMSRM), crosslinked polypeptides are diluted from 10 mM stocks (100% DMSO) in sterile water to prepare 2 mM working solutions. The crosslinked polypeptides and controls are diluted 10-fold first and then serially two-fold diluted in Opti-MEM in the presence of 2% or 10% of human serum to provide concentrations of the polypeptides equal to between 6.25 to 200 μM in dosing plates. 50 μl of each dilution is then added to the appropriate wells of the test plate to achieve final concentrations of the polypeptides equal to between 3.125 to 100 μM. Controls included wells without polypeptides containing the same concentration of DMSO as the wells containing the macrocycles, wells containing 0.1% Triton X-100 and wells containing no cells. Plates are incubated for 24 hours at 37° C. in humidified 5% CO2 atmosphere.
At the end of the incubation period, CellTiter-Glo assay is performed according to manufacturer's instructions (Promega, catalog #G7573) and luminescence is measured using Synergy HT Plate reader (BioTek). Luminescence correlates with viability. A reduction in viability reflects the ability of the test compounds to induce programmed cell death via BAX and BAK.

human serum proteins = assay: Apparent affinity to human serum proteins (Kd*) by EC50 shift analysis; type: in vitro ADME; conditions: nonlinear regression of EC50 shift with serum, n = 1, P = 700 μM for 100% serum
Source text: The measurement of apparent Kd values for serum protein by EC50 shift analysis provides a simple and rapid means of quantifying the propensity of experimental compounds to bind HSA and other serum proteins. A linear relationship exists between the apparent EC50 in the presence of serum protein (EC′50) and the amount of serum protein added to an in vitro assay. This relationship is defined by the binding affinity of the compound for serum proteins, expressed as Kd*. This term is an experimentally determined, apparent dissociation constant that may result from the cumulative effects of multiple, experimentally indistinguishable, binding events. The form of this relationship is presented here in Eq. 0.3, and its derivation can be found in Copeland et al, Biorg. Med. Chem. Lett. 2004, 14:2309-2312. [formula] A significant proportion of serum protein binding can be ascribed to drug interactions with HSA, due to the very high concentration of this protein in serum (35-50 g/L or 530-758 μM). To calculate the Kd value for these compounds we have assumed that the shift in EC50 upon protein addition can be ascribed fully to the HSA present in the added serum, where P is 700 μM for 100% serum, P is 70 μM for 10% serum, etc. We further made the simplifying assumption that all of the compounds bind HSA with a 1:1 stoichiometry, so that the term n in Eq. (0.3) is fixed at unity. With these parameters in place we calculated the Kd* value for each stapled peptide from the changes in EC50 values with increasing serum (and serum protein) concentrations by nonlinear regression analysis of Eq. 0.3 using Mathematica 4.1 (Wolfram Research, Inc., www.wolfram.com). EC′50 values in whole blood are estimated by setting P in Eq. 0.3 to 700 μM [HSA].

[1] = Estimated free fraction in blood, calculated from Kd* with [HSA]total 700 μM; type: in vitro ADME; conditions: human; [HSA]total set at 700 μM; read-out: Free Fraction est. in blood
Procedure: The free fraction in blood is estimated per the following equation, as derived by Trainor, Expert Opin. Drug Disc., 2007, 2(1):51-64, where [HSA]total is set at 700 μM. [formula]

| SMILES | EC50 (Jurkat cell line) | Kd (human serum proteins) | fraction unbound [1] | efficacy in serum-free media and in the presence of serum (Jurkat cell line; statement in words) |
| --- | --- | --- | --- | --- |
| CCCC[C@H](NC(=O)C1(C)CCCC=CCCCC(C)(NC(=O)[C@H](C)NC(=O)[C@H](CC(C)C)NC(=O)[C@H](Cc2c[nH]cn2)NC(=O)[C@H](CCCNC(=N)N)NC(=O)[C@H](C)NC(=O)[C@@H](NC(=O)[C@H](CC(N)=O)NC(=O)[C@H](CCCNC(=N)N)NC(=O)[C@@H](NC(=O)[C@H](C)NC(=O)[C@H](CC(=O)O)NC(C)=O)[C@@H](C)CC)[C@@H](C)CC)C(=O)N[C@@H](C(C)C)C(=O)NC(C)(C)C(=O)N[C@@H](CC(=O)O)C(=O)N1)C(=O)N[C@@H](C)C(=O)N[C@@H](CCCNC(=N)N)C(=O)N[C@@H](CO)C(=O)N[C@H](C(N)=O)[C@@H](C)CC (stereo partly shown) [Compound 4, Ac-DAIRNIARHLA$VAibD$NleARSI-NH2] (Ac-DAIRNIARHLA[ξαMeNle(6-ylidene)]V[Aib]D[ξαMeNle(6-ylidene)][Nle]ARSI-NH2; staple 12-16) | 1000 nM | < 100 nM | < 0.001 |  |
| CCC(=O)N[C@@H](CCCNC(=N)N)C(=O)N[C@@H](CC(N)=O)C(=O)N[C@H](C(=O)NC(C)(C)C(=O)N[C@@H](CCCNC(=N)N)C(=O)N[C@@H](Cc1c[nH]cn1)C(=O)N[C@@H](CC(C)C)C(=O)NC(C)(C)C(=O)NC1(C)CCCC=CCCCC(C)(C(=O)N[C@@H](C)C(=O)N[C@@H](C)C(=O)N[C@@H](CCCNC(=N)N)C(=O)N[C@@H](CO)C(=O)N[C@H](C(N)=O)[C@@H](C)CC)NC(=O)[C@H](CC(=O)O)NC(=O)C(C)(C)NC(=O)[C@H](C(C)C)NC1=O)[C@@H](C)CC (stereo partly shown) [Compound 9, Pr-RNIAibRHLAib$VAibD$AARSI-NH2] (Propionyl-RNI[Aib]RHL[Aib][ξαMeNle(6-ylidene)]V[Aib]D[ξαMeNle(6-ylidene)]AARSI-NH2; staple 9-13) | 1100 nM | 2900 nM | 0.0048 |  |
| CC[C@H](C)[C@H](NC(C)=O)C(=O)N[C@@H](Cc1c[nH]c2ccccc12)C(=O)N[C@H](C(=O)N[C@@H](C)C(=O)N[C@@H](CCC(N)=O)C(=O)N[C@@H](CCC(=O)O)C(=O)N[C@@H](CC(C)C)C(=O)N[C@@H](CCCNC(=N)N)C(=O)NC1(C)CCCC=CCCCC(C)(C(=O)N[C@@H](Cc2ccccc2)C(=O)N[C@@H](CC(N)=O)C(=O)N[C@@H](C)C(=O)N[C@@H](Cc2ccc(O)cc2)C(=O)N[C@@H](Cc2ccc(O)cc2)C(=O)N[C@@H](C)C(=O)N[C@@H](CCCNC(=N)N)C(=O)N[C@@H](CCCNC(=N)N)C(N)=O)NC(=O)[C@H](CC(=O)O)NC(=O)CNC(=O)[C@H]([C@@H](C)CC)NC1=O)[C@@H](C)CC (stereo partly shown) [Compound 10, Ac-IWIAQELR$IGD$FNAYYARR-NH2] | 1300 nM | < 100 nM | < 0.001 | high efficacy in serum-free media, which is substantially reduced in the presence of serum |
| CC[C@H](C)[C@H](NC(C)=O)C(=O)N[C@@H](Cc1c[nH]c2ccccc12)C(=O)N[C@H](C(=O)N[C@@H](C)C(=O)N[C@@H](CCC(N)=O)C(=O)N[C@@H](CCC(N)=O)C(=O)N[C@@H](CC(C)C)C(=O)N[C@@H](CCCNC(=N)N)C(=O)NC1(C)CCCC=CCCCC(C)(C(=O)N[C@@H](Cc2ccccc2)C(=O)N[C@@H](CC(N)=O)C(=O)N[C@@H](C)C(=O)N[C@@H](Cc2ccc(O)cc2)C(=O)N[C@@H](Cc2ccc(O)cc2)C(=O)N[C@@H](C)C(=O)N[C@@H](CCCNC(=N)N)C(=O)N[C@@H](CCCNC(=N)N)C(N)=O)NC(=O)[C@H](CC(=O)O)NC(=O)CNC(=O)[C@H]([C@@H](C)CC)NC1=O)[C@@H](C)CC (stereo partly shown) [Compound 11, Ac-IWIAQQLR$IGD$FNAYYARR-NH2] | 1200 nM | 1100 nM | 0.0018 |  |
| CC[C@H](C)[C@H](NC(C)=O)C(=O)N[C@@H](Cc1c[nH]c2ccccc12)C(=O)N[C@H](C(=O)N[C@@H](C)C(=O)N[C@@H](CCC(N)=O)C(=O)N[C@@H](C)C(=O)N[C@@H](CC(C)C)C(=O)N[C@@H](CCCNC(=N)N)C(=O)NC1(C)CCCC=CCCCC(C)(C(=O)N[C@@H](Cc2ccccc2)C(=O)N[C@@H](CC(N)=O)C(=O)N[C@@H](C)C(=O)N[C@@H](Cc2ccc(O)cc2)C(=O)N[C@@H](Cc2ccc(O)cc2)C(=O)N[C@@H](C)C(=O)N[C@@H](CCCNC(=N)N)C(=O)N[C@@H](CCCNC(=N)N)C(N)=O)NC(=O)[C@H](CC(=O)O)NC(=O)CNC(=O)[C@H]([C@@H](C)CC)NC1=O)[C@@H](C)CC (stereo partly shown) [Compound 12, Ac-IWIAQALR$IGD$FNAYYARR-NH2] | 1300 nM | 2300 nM | 0.0038 |  |
| CC[C@H](C)[C@H](NC(=O)[C@H](Cc1c[nH]c2ccccc12)NC(=O)[C@H](CCCNC(=N)N)NC(C)=O)C(=O)N[C@@H](C)C(=O)N[C@@H](CCC(N)=O)C(=O)N[C@@H](CCC(N)=O)C(=O)N[C@@H](CC(C)C)C(=O)N[C@@H](CCCNC(=N)N)C(=O)NC1(C)CCCC=CCCCC(C)(C(=O)N[C@@H](Cc2ccccc2)C(=O)N[C@@H](CC(N)=O)C(=O)N[C@@H](C)C(=O)N[C@@H](Cc2ccc(O)cc2)C(=O)N[C@@H](Cc2ccc(O)cc2)C(=O)N[C@@H](C)C(=O)N[C@@H](CCCNC(=N)N)C(=O)N[C@@H](CCCNC(=N)N)C(N)=O)NC(=O)[C@H](CC(=O)O)NC(=O)CNC(=O)[C@H]([C@@H](C)CC)NC1=O (stereo partly shown) [Compound 13, Ac-RWIAQQLR$IGD$FNAYYARR-NH2] | 1500 nM | 3800 nM | 0.0063 |  |
| CC[C@H](C)[C@H](NC(=O)[C@H](Cc1c[nH]c2ccccc12)NC(=O)[C@H](CCCNC(=N)N)NC(C)=O)C(=O)N[C@@H](C)C(=O)N[C@@H](CCC(N)=O)C(=O)N[C@@H](C)C(=O)N[C@@H](CC(C)C)C(=O)N[C@@H](CCCNC(=N)N)C(=O)NC1(C)CCCC=CCCCC(C)(C(=O)N[C@@H](Cc2ccccc2)C(=O)N[C@@H](CC(N)=O)C(=O)N[C@@H](C)C(=O)N[C@@H](Cc2ccc(O)cc2)C(=O)N[C@@H](Cc2ccc(O)cc2)C(=O)N[C@@H](C)C(=O)N[C@@H](CCCNC(=N)N)C(=O)N[C@@H](CCCNC(=N)N)C(N)=O)NC(=O)[C@H](CC(N)=O)NC(=O)CNC(=O)[C@H]([C@@H](C)CC)NC1=O (stereo partly shown) [Compound 15, Ac-RWIAQALR$1GN$FNAYYARR-NH2] | 900 nM | 5100 nM | 0.0084 |  |
| CC[C@H](C)[C@H](NC(C)=O)C(=O)N[C@@H](Cc1c[nH]c2ccccc12)C(=O)N[C@H](C(=O)N[C@@H](C)C(=O)N[C@@H](CCC(N)=O)C(=O)N[C@@H](C)C(=O)N[C@@H](CC(C)C)C(=O)N[C@@H](CCCNC(=N)N)C(=O)NC1(C)CCCC=CCCCC(C)(C(=O)N[C@@H](Cc2ccccc2)C(=O)N[C@@H](CC(N)=O)C(=O)N[C@@H](C)C(=O)N[C@@H](Cc2ccc(O)cc2)C(=O)N[C@@H](Cc2ccc(O)cc2)C(=O)N[C@@H](C)C(=O)N[C@@H](CCCNC(=N)N)C(=O)N[C@@H](CCCNC(=N)N)C(N)=O)NC(=O)[C@H](CC(N)=O)NC(=O)CNC(=O)[C@H]([C@@H](C)CC)NC1=O)[C@@H](C)CC (stereo partly shown) [Compound 16, Ac-IWIAQALR$IGN$FNAYYARR-NH2] | 500 nM | 3500 nM | 0.0058 |  |
